Laboratory results as given in ChEMBL document CHEMBL5390201, “The Natural Alkaloid (-)-N-Hydroxyapiosporamide Suppresses Colorectal Tumor Progression as an NF-κB Pathway Inhibitor by Targeting the TAK1-TRAF6 Complex” (J Nat Prod, 2023).
The source made the active and inactive calls. No cut-off for these calls is given here.

How the values were obtained:
HT-29 [1] = assay: Induction of apoptosis in human HT-29 cells assessed as early apoptotic cells at 5 uM preincubated with Z-VAD-FMK for 1 hr followed by compound addition and measured after 24 hrs by Annexin V-FITC/PI staining based flow cytometric analysis (reference value: 4.05 %); format: functional
HT-29 [2] = assay: Inhibition of colony formation in human HT-29 cells at 0.25 to 10 uM incubated for 24 hrs and measured after 14 days by crystal violet staining based assay; format: functional, cell-based; conditions: dose 0.25-10 µM, time 14.0 day
[3] = Toxicity in athymic nude BALB/c mouse assessed as change in serum ALT level at 5 to 15 mg/kg, ip administered every other day and measured after 14 days; format: organism-based; conditions: in vivo, 336 h, dose 5-15 mg/kg, time 14 day
HCT-116 [4] = assay: Induction of apoptosis in human HCT-116 cells assessed as increase in cleavage of PARP measured for 24 hrs by Western blot analysis; format: functional, cell-based; conditions: dose 0-10 µM
HT-29 [5] = assay: Induction of apoptosis in human HT-29 cells assessed as increase in cleavage of PARP measured for 24 hrs by Western blot analysis; format: functional, cell-based; conditions: dose 0-10 µM
HCT-116 [6] = assay: Induction of cell cycle arrest in human HCT-116 cells assessed as accumulation of cells at G2/M phase at 5 uM by RNase/PI staining based flow cytometry analysis (reference value: 23.15 %); format: functional
Mus musculus [7] = assay: (§1) Anti-inflammatory activity in AOM/DSS-induced BALB/c mouse model inflammatory bowel disease assessed as reduction in tumor number at 5 to 10 mg/kg, ip pretreated with AOM for 7 days further replaced with DSS for 7 days and repeated for 2 times followed by every 2 days compound treatment for […] starting from day 50 and measured once a week; format: functional, organism-based; conditions: dose 5-10 mg/kg, time 21.0 day
HCT-116 [8] = assay: Induction of cell cycle arrest in human HCT-116 cells assessed as accumulation of cells at G0/G1 phase at 1 uM by RNase/PI staining based flow cytometry analysis (reference value: 33.08 %); format: functional
Mus musculus [9] = assay: as §1, with “length” for “number”; format: functional, organism-based; conditions: dose 5-10 mg/kg, time 21.0 day
[10] = target: T1, Nuclear factor NF-kappa-B complex (Homo sapiens) (UniProt Q00653+P19838+Q04206); assay: Inhibition of TNF-alpha induced NFkappaB activation in human HCT-116 cells assessed as inhibition of p65 nuclear translocation at 10 uM pretreated for 6 hrs followed by TNFalpha stimulation for 15 mins by immunohistochemical analysis; format: cell-based; conditions: time 6.25 hrs
T1 sequence (P19838 whole entry, looked up): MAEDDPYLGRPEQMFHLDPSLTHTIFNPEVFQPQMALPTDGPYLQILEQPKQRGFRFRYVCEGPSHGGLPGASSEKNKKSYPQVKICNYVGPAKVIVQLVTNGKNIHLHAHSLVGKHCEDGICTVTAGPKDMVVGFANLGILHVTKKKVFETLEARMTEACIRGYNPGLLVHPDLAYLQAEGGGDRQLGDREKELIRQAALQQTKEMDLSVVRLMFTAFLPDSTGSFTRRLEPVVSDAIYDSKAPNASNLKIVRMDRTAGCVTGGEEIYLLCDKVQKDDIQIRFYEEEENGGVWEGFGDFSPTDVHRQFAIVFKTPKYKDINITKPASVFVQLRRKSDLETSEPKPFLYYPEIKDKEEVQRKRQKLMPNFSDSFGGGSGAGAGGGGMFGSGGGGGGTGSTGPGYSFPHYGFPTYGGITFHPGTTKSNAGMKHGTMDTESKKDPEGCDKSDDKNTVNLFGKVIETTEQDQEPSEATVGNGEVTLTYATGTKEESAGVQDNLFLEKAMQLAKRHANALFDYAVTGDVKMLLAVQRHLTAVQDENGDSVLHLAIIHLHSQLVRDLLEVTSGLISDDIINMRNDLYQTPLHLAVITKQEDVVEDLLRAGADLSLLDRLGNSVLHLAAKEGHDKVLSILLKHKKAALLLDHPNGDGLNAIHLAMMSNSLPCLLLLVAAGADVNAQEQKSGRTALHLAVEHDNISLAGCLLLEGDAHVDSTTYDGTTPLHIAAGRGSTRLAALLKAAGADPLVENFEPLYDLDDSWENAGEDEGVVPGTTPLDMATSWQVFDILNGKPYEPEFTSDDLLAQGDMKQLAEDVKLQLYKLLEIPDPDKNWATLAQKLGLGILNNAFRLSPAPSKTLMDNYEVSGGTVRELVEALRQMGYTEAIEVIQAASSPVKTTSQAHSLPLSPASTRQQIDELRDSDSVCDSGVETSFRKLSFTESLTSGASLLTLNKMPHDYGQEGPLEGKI
T1 sequence (Q00653 whole entry, looked up): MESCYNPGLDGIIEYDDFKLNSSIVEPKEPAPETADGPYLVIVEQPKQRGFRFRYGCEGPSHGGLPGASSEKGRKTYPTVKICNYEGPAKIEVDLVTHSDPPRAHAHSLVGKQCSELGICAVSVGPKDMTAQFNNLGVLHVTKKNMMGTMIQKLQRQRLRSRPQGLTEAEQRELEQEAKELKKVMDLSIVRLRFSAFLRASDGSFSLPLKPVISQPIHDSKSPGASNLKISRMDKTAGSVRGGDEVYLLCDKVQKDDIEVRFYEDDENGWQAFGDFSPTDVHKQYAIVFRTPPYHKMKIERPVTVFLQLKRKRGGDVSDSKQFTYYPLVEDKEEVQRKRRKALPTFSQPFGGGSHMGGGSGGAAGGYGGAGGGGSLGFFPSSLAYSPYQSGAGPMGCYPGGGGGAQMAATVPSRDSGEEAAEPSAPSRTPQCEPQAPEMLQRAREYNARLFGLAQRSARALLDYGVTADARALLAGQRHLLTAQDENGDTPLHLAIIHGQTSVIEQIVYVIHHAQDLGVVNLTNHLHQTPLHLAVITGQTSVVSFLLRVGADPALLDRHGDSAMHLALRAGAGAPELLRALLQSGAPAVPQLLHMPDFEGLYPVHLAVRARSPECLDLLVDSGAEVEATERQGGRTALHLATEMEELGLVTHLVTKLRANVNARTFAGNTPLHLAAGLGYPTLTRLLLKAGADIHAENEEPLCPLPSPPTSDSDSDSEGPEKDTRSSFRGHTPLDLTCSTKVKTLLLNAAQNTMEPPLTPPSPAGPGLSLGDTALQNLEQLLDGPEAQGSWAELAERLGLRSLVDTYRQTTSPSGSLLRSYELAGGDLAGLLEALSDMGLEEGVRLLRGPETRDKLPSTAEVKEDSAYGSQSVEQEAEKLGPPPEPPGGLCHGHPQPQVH
T1 sequence (Q04206 whole entry, looked up): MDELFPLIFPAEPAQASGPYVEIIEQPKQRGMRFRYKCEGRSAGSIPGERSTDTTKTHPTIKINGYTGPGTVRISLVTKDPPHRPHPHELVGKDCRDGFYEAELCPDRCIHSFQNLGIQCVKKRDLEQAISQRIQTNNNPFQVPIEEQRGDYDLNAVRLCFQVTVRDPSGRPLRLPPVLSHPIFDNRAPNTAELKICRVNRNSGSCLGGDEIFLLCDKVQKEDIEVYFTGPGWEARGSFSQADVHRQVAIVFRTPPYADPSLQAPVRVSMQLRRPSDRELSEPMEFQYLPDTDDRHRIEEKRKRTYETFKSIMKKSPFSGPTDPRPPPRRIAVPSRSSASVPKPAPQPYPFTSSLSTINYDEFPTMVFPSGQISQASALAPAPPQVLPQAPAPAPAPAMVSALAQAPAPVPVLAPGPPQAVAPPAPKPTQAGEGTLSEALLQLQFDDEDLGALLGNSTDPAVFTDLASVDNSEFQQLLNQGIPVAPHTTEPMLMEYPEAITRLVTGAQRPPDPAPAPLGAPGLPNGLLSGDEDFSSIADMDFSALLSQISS

HCT-116 [11] = assay: Induction of autophagy in human HCT-116 cells assessed as increase in LC3I to LC3II conversion at 1 to 10 uM incubated for 24 hrs by Western blotting analysis; format: functional, cell-based; conditions: dose 1-10 µM
HT-29 [12] = assay: Induction of apoptosis in human HT-29 cells assessed as viable cells at 5 uM preincubated with Z-VAD-FMK for 1 hr followed by compound addition and measured after 24 hrs by Annexin V-FITC/PI staining based flow cytometric analysis (reference value: 88.5 %); format: functional; conditions: read-out: Activity
HT-29 [13] = assay: Induction of apoptosis in human HT-29 cells assessed as late apoptotic cells at 0.5 uM incubated for 24 hrs by Annexin V-FITC/PI staining based flow cytometric analysis (reference value: 1.56 %); format: functional
HT-29 [14] = assay: Induction of autophagic flux in human HT-29 cells assessed as increase in LC3 protein expression preincubated with 3-methyladenine for 1 hr followed by compound addition and measured after 24 hrs by Western blot analysis; format: functional, cell-based
HT-29 [15] = assay: Antitumor activity against human HT-29 cells xenografted in athymic nude BALB/c mouse assessed as reduction in tumor volume at 5 to 15 mg/kg, ip administered every other day and measured every other day for 16 days; format: functional, organism-based; conditions: dose 5-15 mg/kg, time 16.0 day
HCT-116 [16] = assay: Induction of cell cycle arrest in human HCT-116 cells assessed as accumulation of cells at S phase at 10 uM by RNase/PI staining based flow cytometry analysis (reference value: 43.77 %); format: functional
Mus musculus [17] = assay: In vivo inhibition of NFkappaB activation in LPS-induced BALB/c mouse model of endotoxin shock assessed as inhibition of IL6 mRNA expression in liver at 5 mg/kg, ip pretreated for 4 hrs followed by LPS stimulation for 1 hr by RT-PCR analysis; format: functional, organism-based; conditions: time 5.0 hrs
Mus musculus [18] = assay: In vivo inhibition of NFkappaB activation in LPS-induced BALB/c mouse model of endotoxin shock assessed as reduction in TNF-alpha level in serum at 5 mg/kg, ip pretreated for 4 hrs followed by LPS stimulation for 1 hr by ELISA; format: functional, organism-based; conditions: time 5.0 hrs
HT-29 [19] = assay: Induction of cell cycle arrest in human HT-29 cells assessed as decrease in Cyclin B protein expression upto 10 uM incubated for 24 hrs by Western blot analysis; format: functional, cell-based
Mus musculus [20] = assay: In vivo inhibition of NFkappaB activation in athymic BALB/c mouse xenografted with human HCT-116 cells assessed as reduction in E-selectin gene expression in tumor at 15 mg/kg, ip administered every other day and measured after 14 days by qRT-PCR analysis; format: functional, organism-based; conditions: time 14.0 day
HT-29 [21] = assay: Induction of apoptosis in human HT-29 cells assessed as viable cells at 0.25 uM incubated for 24 hrs by Annexin V-FITC/PI staining based flow cytometric analysis (reference value: 93 %); format: functional; conditions: read-out: Activity
HCT-116 [22] = assay: Induction of apoptosis in human HCT-116 cells assessed as early apoptotic cells at 5 uM preincubated with Z-VAD-FMK for 1 hr followed by compound addition and measured after 24 hrs by Annexin V-FITC/PI staining based flow cytometric analysis (reference value: 4.75 %); format: functional
HCT-116 [23] = assay: Induction of autophagic flux in human HCT-116 cells assessed as increase in LC3I to LC3II conversion preincubated with 3-methyladenine for 1 hr followed by compound addition and measured after 24 hrs by Western blot analysis; format: functional, cell-based
[24] = target: T1, Nuclear factor NF-kappa-B complex (Homo sapiens); assay: Inhibition of TNF-alpha induced NFkappaB activation in human HCT-116 cells assessed as inhibition of IkappaBalpha degradation at 1 to 10 uM pretreated for 24 hrs followed by TNFalpha stimulation for 10 mins by Western blot analysis; format: cell-based; conditions: dose 1-10 µM, time 1450.0 min
[25] = target: T1, Nuclear factor NF-kappa-B complex (Homo sapiens); assay: Inhibition of NFkappaB activation in HEK293T cells transfected with Flag-tagged TRAF2 and kappaB luciferase/pTK-renilla reporters at 2 uM incubated for 6 hrs by Dual Luciferase Reporter Assay; format: cell-based; conditions: HEK-293T
HT-29 [26] = assay: Induction of cell cycle arrest in human HT-29 cells assessed as decrease in CDK2 protein expression upto 10 uM incubated for 24 hrs by Western blot analysis; format: functional, cell-based
HT-29 [27] = assay: Induction of apoptosis in human HT-29 cells assessed as early apoptotic cells at 0.25 uM incubated for 24 hrs by Annexin V-FITC/PI staining based flow cytometric analysis (reference value: 5.29 %); format: functional
HT-29 [28] = assay: Induction of autophagic flux in human HT-29 cells assessed as increase in LC3I to LC3II conversion preincubated with chloroquine for 1 hr followed by compound addition and measured after 24 hrs by Western blot analysis; format: functional, cell-based
Mus musculus [29] = assay: Protection against LPS-induced endotoxic shock in BALB/c mouse model assessed as survival rate at 5 mg/kg, ip pretreated for 4 hrs followed by LPS administration at 20 mg/kg and measured every 2 to 4 hrs for 44 hrs relative to control; format: functional; conditions: time 48 hrs

Compound: C[C@@H]1CC[C@H]2[C@H](C(=O)c3c(O)c([C@@]4(O)CC[C@@H](O)[C@H]5O[C@H]54)cn(O)c3=O)[C@H](C)C=C[C@@H]2C1
- Activity (HT-29 [1]): 17.1%
- inhibition (HT-29 [2]): Active
- Activity [3]: Non-Toxic
- Activity (HCT-116 [4]): Dose-Dependent Effect
- Activity (HT-29 [5]): Dose-Dependent Effect
- Activity (HCT-116 [6]): 15.66%
- Activity (Mus musculus [7]): Active
- Activity (HCT-116 [8]): 36.23%
- Activity (Mus musculus [9]): Active
- inhibition [10]: Active
- Activity (HCT-116 [11]): Active
- viability at 5 µM (HT-29 [12]): 65.5%
- Activity (HT-29 [13]): 6.72%
- Activity (HT-29 [14]): Active
- Activity (HT-29 [15]): Active
- Activity (HCT-116 [16]): 39.08%
- inhibition (Mus musculus [17]): Active
- inhibition (Mus musculus [18]): Active
- Activity (HT-29 [19]): Active
- inhibition (Mus musculus [20]): Active
- viability at 0.25 µM (HT-29 [21]): 85.9%
- Activity (HCT-116 [22]): 16.8%
- Activity (HCT-116 [23]): Active
- inhibition [24]: Active
- inhibition [25]: Active
- Activity (HT-29 [26]): Active
- Activity (HT-29 [27]): 12.6%
- Activity (HT-29 [28]): Active
- survival at 5 mg/kg (Mus musculus [29]): > 40%
